Experimental data as given in ChEMBL document CHEMBL4052684, “A novel intestinal-restricted FXR agonist” (Bioorg Med Chem Lett, 2017).
The source made the active and inactive calls. The rule behind the calls is not given here.

How the values were obtained:
[1] = target: T1, Bile acid receptor (Homo sapiens) (UniProt Q96RI1); experiment: Agonist activity at FXR in human Caco2 cells; assay type: cell-based
T1 sequence (whole entry): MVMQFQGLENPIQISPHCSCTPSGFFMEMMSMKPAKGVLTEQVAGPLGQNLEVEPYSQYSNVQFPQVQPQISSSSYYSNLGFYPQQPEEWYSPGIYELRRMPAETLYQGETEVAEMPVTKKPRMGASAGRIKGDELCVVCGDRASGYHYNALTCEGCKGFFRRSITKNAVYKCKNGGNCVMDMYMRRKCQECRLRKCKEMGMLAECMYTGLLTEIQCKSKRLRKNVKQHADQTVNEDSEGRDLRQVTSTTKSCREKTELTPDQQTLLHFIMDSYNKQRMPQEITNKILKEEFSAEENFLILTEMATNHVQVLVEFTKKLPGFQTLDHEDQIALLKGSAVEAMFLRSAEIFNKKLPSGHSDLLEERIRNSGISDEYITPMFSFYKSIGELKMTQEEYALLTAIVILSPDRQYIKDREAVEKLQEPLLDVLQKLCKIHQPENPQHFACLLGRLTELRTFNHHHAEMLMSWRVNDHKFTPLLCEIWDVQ

[2] = target: T1, Bile acid receptor (Homo sapiens); experiment: Agonist activity at FXR in human Hepg2 cells; assay type: cell-based
[3] = target: T2, Bile acid receptor (Rattus norvegicus) (UniProt Q62735); experiment: Agonist activity at FXR in rat primary hepatocytes; assay type: cell-based
T2 sequence (whole entry): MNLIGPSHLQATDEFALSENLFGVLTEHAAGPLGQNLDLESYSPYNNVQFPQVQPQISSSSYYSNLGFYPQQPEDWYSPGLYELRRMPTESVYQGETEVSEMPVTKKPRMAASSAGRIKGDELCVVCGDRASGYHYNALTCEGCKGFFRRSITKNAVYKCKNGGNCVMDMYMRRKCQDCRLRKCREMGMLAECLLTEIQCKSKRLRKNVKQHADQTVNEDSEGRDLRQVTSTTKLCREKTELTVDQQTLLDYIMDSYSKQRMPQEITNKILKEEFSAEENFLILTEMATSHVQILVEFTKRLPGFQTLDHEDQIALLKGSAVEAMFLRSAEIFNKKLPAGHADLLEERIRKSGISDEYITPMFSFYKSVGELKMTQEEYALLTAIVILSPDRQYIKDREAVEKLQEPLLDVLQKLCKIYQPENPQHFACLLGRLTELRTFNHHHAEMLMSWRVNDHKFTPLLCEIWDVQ

[4] = target: T2, Bile acid receptor (Rattus norvegicus); experiment: Agonist activity at FXR in rat primary hepatocytes assessed as increase in BSEP mRNA expression at 50 uM; assay type: cell-based
[5] = target: T2, Bile acid receptor (Rattus norvegicus); experiment: Agonist activity at FXR in rat primary hepatocytes assessed as increase in SHP mRNA expression at 50 uM; assay type: cell-based
[6] = target: T2, Bile acid receptor (Rattus norvegicus); experiment: Agonist activity at FXR in rat primary hepatocytes assessed as reduction in CYP7A1 mRNA expression at 50 uM; assay type: cell-based
[7] = Drug uptake in human Caco2 cells at 20 and 50 uM by LC-MS/MS method; assay type: ADME, cell-based; conditions: Caco-2
[8] = Drug uptake in human Caco2 cells at 20 and 50 uM by LC-MS/MS method relative to initial level; assay type: ADME, cell-based; conditions: caco-2, TDE = time-dependent effect
[9] = Apparent permeability from apical side to basolateral side in human Caco2 cells at 20 uM by LC-MS/MS method; assay type: ADME, cell-based; conditions: Caco-2
[10] = Apparent permeability from apical side to basolateral side in human Caco2 cells at 50 uM by LC-MS/MS method; assay type: ADME, cell-based; conditions: Caco-2
[11] = Apparent permeability from basolateral to apical side in human Caco2 cells at 20 uM by LC-MS/MS method; assay type: ADME, cell-based; conditions: Caco-2
[12] = Apparent permeability from basolateral to apical side in human Caco2 cells at 50 uM by LC-MS/MS method; assay type: ADME, cell-based; conditions: Caco-2
[13] = Efflux ratio in human Caco2 cells at 20 uM by LC-MS/MS method; assay type: ADME, cell-based; conditions: Caco-2
[14] = Efflux ratio in human Caco2 cells at 50 uM by LC-MS/MS method; assay type: ADME, cell-based; conditions: Caco-2
Ileum = experiment: Drug accumulation in C57BL/6 mouse ileum at 100 mg/kg, ig for 5 days by LC-MS/MS method; assay type: ADME, organism-based; conditions: in vivo, po, 120 h
Jejunum = experiment: Drug accumulation in C57BL/6 mouse jejunum at 100 mg/kg, ig for 5 days by LC-MS/MS method; assay type: ADME, organism-based; conditions: in vivo, po, 120 h
Liver = experiment: Drug accumulation in C57BL/6 mouse liver at 100 mg/kg, ig for 5 days by LC-MS/MS method; assay type: ADME, organism-based; conditions: in vivo, po, 120 h
Serum = experiment: Drug accumulation in C57BL/6 mouse serum at 100 mg/kg, ig for 5 days by LC-MS/MS method; assay type: ADME, organism-based; conditions: in vivo, po, 120 h
Mus musculus [15] = experiment: Induction of FXR activation in C57BL/6 mouse ileum assessed as increase in FXR-mediated Bsep mRNA expression at 100 mg/kg, ig for 5 days by PCR method; assay type: functional, organism-based
Mus musculus [16] = experiment: Induction of FXR activation in C57BL/6 mouse ileum assessed as reduction in FXR-mediated Cyp7A1 mRNA expression at 100 mg/kg, ig for 5 days by PCR method; assay type: functional, organism-based
Caco-2 = experiment: Cytotoxicity against human Caco2 cells at 100 uM incubated for 24 hrs by MTT assay; assay type: cell-based; conditions: caco-2, 24 h
[17] = Drug uptake in human Caco2 cells at 20 and 50 uM by LC-MS/MS method after 3 hrs; assay type: ADME, cell-based; conditions: caco-2, 3 h
Mus musculus [18] = experiment: Increase in FXR mRNA expression in C57BL/6 mouse ileum at 100 mg/kg, ig for 5 days by PCR method; assay type: functional, organism-based
Mus musculus [19] = experiment: Effect on FXR mRNA expression in C57BL/6 mouse duodenum at 100 mg/kg, ig for 5 days by PCR method; assay type: ADME, organism-based; conditions: in vivo, po, 120 h
Mus musculus [20] = experiment: Effect on FXR mRNA expression in C57BL/6 mouse jejunum at 100 mg/kg, ig for 5 days by PCR method; assay type: ADME, organism-based; conditions: in vivo, po, 120 h
Mus musculus [21] = experiment: Effect on FXR mRNA expression in C57BL/6 mouse liver at 100 mg/kg, ig for 5 days by PCR method; assay type: ADME, organism-based; conditions: in vivo, po, 120 h
Mus musculus [22] = experiment: Effect on FXR mRNA expression in C57BL/6 mouse kidney at 100 mg/kg, ig for 5 days by PCR method; assay type: ADME, organism-based; conditions: in vivo, po, 120 h
[23] = Solubility in DMSO/mineral oil medium; assay type: physicochemical
Intestine = experiment: Drug accumulation in C57BL/6 mouse intestine assessed as drug adherence to intestinal wall at 100 mg/kg, ig for 5 days by LC-MS/MS method; assay type: ADME, organism-based; conditions: in vivo, po, 120 h
Mus musculus [24] = experiment: Induction of FXR activation in C57BL/6 mouse ileum assessed as increase in FXR-mediated Shp mRNA expression at 100 mg/kg, ig for 5 days by PCR method; assay type: functional, organism-based
Mus musculus [25] = experiment: Effect on FXR activation in C57BL/6 mouse liver assessed as increase in FXR-mediated Shp mRNA expression at 100 mg/kg, ig for 5 days by PCR method; assay type: organism-based; conditions: in vivo, po, 120 h
Mus musculus [26] = experiment: Effect on FXR activation in C57BL/6 mouse kidney assessed as increase in FXR-mediated Shp mRNA expression at 100 mg/kg, ig for 5 days by PCR method; assay type: organism-based; conditions: in vivo, po, 120 h
Mus musculus [27] = experiment: Effect on FXR activation in C57BL/6 mouse non ileum part of intestine assessed as increase in FXR-mediated Shp mRNA expression at 100 mg/kg, ig for 5 days by PCR method; assay type: organism-based; conditions: in vivo, po, 120 h
Bile acid receptor = target: T3, Bile acid receptor (Homo sapiens, UniProt Q96RI1); experiment: Binding affinity to FXR (unknown origin)
T3 sequence (Q96RI1 whole entry): T1 sequence (whole entry)

[28] = target: T1, Bile acid receptor (Homo sapiens); experiment: Binding affinity to FXR (unknown origin) relative to fexaramine

Activity [1] | Activity [2] | Activity [3] | Activity [5] | Activity [6] | Drug uptake [7] | Papp A→B at 20 µM [9] | Papp A→B at 50 µM [10] | Papp B→A at 20 µM [11] | Papp B→A at 50 µM [12] | efflux ratio at 20 µM [13] | efflux ratio at 50 µM [14] | Drug uptake (Ileum) | SMILES | Activity [4] | Activity (Mus musculus [15]) | Activity (Mus musculus [16]) | other results
inactive | inactive | inactive | – | – | – | – | – | – | – | – | – | – | COC(=O)/C=C/c1cccc(N(CC2CCCCC2)C(=O)c2ccc3cc(N(C)C)ccc3c2)c1 | – | – | – | –
inactive | inactive | inactive | – | – | – | – | – | – | – | – | – | – | CNc1ccc2cc(C(=O)N(CC3CCCCC3)c3cccc(/C=C/C(=O)OC)c3)ccc2c1 | – | – | – | –
inactive | inactive | – | Active | Active | – | – | – | – | – | – | – | – | COC(=O)/C=C/c1cccc(N(Cc2ccc(-c3ccc(N(C)C)cc3)cc2)C(=O)c2ccc3cc(N(C)C)ccc3c2)c1 | Active | – | – | –
– | – | – | – | – | Active | 277 nm/s | 7620 nm/s | 240 nm/s | 8730 nm/s | 0.87 | 1.14 | Active | COC(=O)/C=C/c1cccc(N(Cc2ccc(-c3ccc(N(C)C)cc3)cc2)C(=O)C2CCCCC2)c1 [FEXARAMINE] | – | Active | Active | Drug uptake [8]: Tde; Drug uptake (Jejunum): Active; Drug uptake (Liver): Active; Drug uptake (Serum): Active
inactive | inactive | – | Active | Active | Active | 187 nm/s | 976 nm/s | 66.2 nm/s | 750 nm/s | 0.35 | 0.77 | Active | CNc1ccc2cc(C(=O)N(Cc3ccc(-c4ccc(N(C)C)cc4)cc3)c3cccc(/C=C/C(=O)OC)c3)ccc2c1 | Active | Active | Active | Activity (Caco-2): Non-Toxic; Drug uptake [17]: Active; Activity (Mus musculus [18]): Active; Activity (Mus musculus [19]): Non-Toxic; Activity (Mus musculus [20]): Non-Toxic; Activity (Mus musculus [21]): Non-Toxic; Activity (Mus musculus [22]): Non-Toxic; solubility [23]: Insoluble; Drug uptake (Intestine): Active; Activity (Mus musculus [24]): Active; Activity (Mus musculus [25]): Non-Toxic; Activity (Mus musculus [26]): Non-Toxic; Activity (Mus musculus [27]): Non-Toxic; Kd (Bile acid receptor): 48.7 µM; Ratio [28]: 2000
